Reference: patent publication US9730445B2, “Herbicidal compositions comprising 4-amino-3-chloro-5-fluoro-6-(4-chloro-2-fluoro-3-methoxyphenyl) pyridine-2-carboxylic acid or a derivative thereof and fungicides” (DOW AGROSCIENCES LLC, priority 2013, dated 2017)
Where “and” joins values, the source holds several entries; their conditions need not be identical. Identical values can stand only once.

Experiments:
FIMMI = assay: In-water applied weed control, transplanted paddy rice (greenhouse); type: in vivo, Fimbristylis miliacea (L.) Vahl (globe fringerush)
Experimental: Weed seeds or nutlets of the desired test plant species were planted in puddled soil (mud) prepared by mixing a shredded, non-sterilized mineral soil (50.5 percent silt, 25.5 percent clay, and 24 percent sand, with a pH of about 7.6 and an organic matter content of about 2.9 percent) and water at a 1:1 volumetric ratio. The prepared mud was dispensed in 365 mL aliquots into 16-ounce (oz.) non-perforated plastic pots with a surface area of 86.59 square centimeters (cm^2) leaving a headspace of 3 centimeters (cm) in each pot. Rice seeds were planted in Sun Gro MetroMix® 306 planting mixture, which typically has a pH of 6.0 to 6.8 and an organic matter content of about 30 percent, in plastic plug trays. Seedlings at the second or third leaf stage of growth were transplanted into 860 mL of mud contained in 32-oz. non-perforated plastic pots with a surface area of 86.59 cm^2 4 days prior to herbicide application. The paddy was created by filling the headspace of the pots with 2.5 to 3 cm of water. When required to ensure good germination and healthy plants, a fungicide treatment and/or other chemical or physical treatment was applied. The plants were grown for 4-22 days in a greenhouse with an approximate 14 hour (h) photoperiod which was maintained at about 29° C. during the day and about 26° C. during the night. Nutrients were added as Osmocote® (17:6:10, N:P:K+minor nutrients) at 2 g per cup. Water was added on a regular basis to maintain the paddy flood, and supplemental lighting was provided with overhead metal halide 1000-Watt lamps as necessary. The plants were employed for testing when they reached the first through fourth true leaf stage. […]
Treatment requirements for each compound or fungicidal component were calculated based upon the rates being tested, the concentration of active ingredient or acid equivalent in the formulation, an application volume of 2 mL per component per pot, and an application area of 86.59 cm^2 per pot.
For formulated compounds, a measured amount was placed in an individual 100 or 200 mL glass vial and was dissolved in a volume of 1.25% (v/v) Agri-Dex® crop oil concentrate to obtain application solutions. […]
The treated plants and control plants were placed in a greenhouse as described above and water was added as needed to maintain a paddy flood. After approximately 3 weeks the condition of the test plants as compared with that of the untreated plants was determined visually and scored on a scale of 0 to 100 percent where 0 corresponds to no injury or growth inhibition and 100 corresponds to complete kill. […]

LEFCH = assay: Postemergence foliar-applied weed control, direct-seeded rice (greenhouse); type: in vivo, Leptochloa chinensis (L.) Nees (Chinese sprangletop)

`COc1c(Cl)ccc(-c2nc(C(=O)OCc3ccccc3)c(Cl)c(N)c2F)c1F` [Compound A Benzyl Ester] was tested, and the “Visual Weed Control (%) - 22 DAA FIMMI Obs” value (FIMMI; Compound A Benzyl Ester 4.38 g ae/ha) was 50%, the “Visual Weed Control (%) - 22 DAA FIMMI Obs” value (FIMMI; Compound A Benzyl Ester 8.75 g ae/ha) was 80% and the “Visual Weed Control (%) - 22 DAA FIMMI Obs” value (FIMMI; Compound A Benzyl Ester 17.5 g ae/ha) was 100%. The “Visual Weed Control (%) - 19 DAA LEFCH Obs” value (LEFCH; 19 DAA, r9-11 ester 8/16/32 g ae/ha alone, r12-13 flutolanil 280/560 g ai/ha alone, r14-19 ester 8/16/32 at each of 280, 560) was 45% and 50%, the “Visual Weed Control (%)—21 DAA LEFCH Obs” value (LEFCH; r9-11 ester 8/16/32 g ae/ha alone, r12-14 kasugamycin 17.5/35/70 g ai/ha alone, r15-23 ester 8/16/32 at each of 17.5, 35, 70) was 40% and 65% and the “Visual Weed Control (%) - 21 DAA LEFCH Obs” value (LEFCH; r10-11 ester 16/32 g ae/ha alone, r12 mancozeb 840 g ai/ha alone, r13-14 ester 16/32 + 840) was 15% and 25%. For the same compound, the “Visual Weed Control (%) - 21 DAA LEFCH Obs” value (LEFCH; r10-12 ester 8/16/32 g ae/ha alone, r13-14 isoprothiolane 266/533 g ai/ha alone, r15-20 ester 8/16/32 at each of 266, 533) was 50% and 60% and 70%, the “Visual Weed Control (%)—21 DAA LEFCH Obs” value (LEFCH; r38-39 ester 8/16 g ae/ha alone, r40 isotianil 380 g ai/ha alone, r41-42 ester 8/16 + 380) was 25% and 40% and the “Visual Weed Control (%) - 21 DAA LEFCH Obs” value (LEFCH; r42-43 ester 16/32 g ae/ha alone, r44-46 difenoconazole 50/100/200 g ai/ha alone, r47-52 ester 16/32 at each of 50, 100, 200) was 25% and 43%.
